Results from PMC7067268, “Biosynthesis of plant tetrahydroisoquinoline alkaloids through an imine reductase route” (Chemical Science, 2019).
Read-outs that look alike come from different tables or passages of the source.

Columns and labels:
IR45 [1] = experiment: imine reduction kinetics; conditions: read-out: IR45 / K m; NADPH-dependent
IR45 [2] = experiment: imine reduction kinetics; conditions: read-out: F190L-W191F / K m; NADPH-dependent
IR45 [3] = experiment: imine reduction kinetics; conditions: read-out: F190M-W191F / K m; NADPH-dependent
[4] = test system: COc1cc2c(cc1OC)[C@H](c1ccc3c(c1)OCO3)NCC2; experiment: purified protein; conditions: co-substrate S-adenosylmethionine
[5] = test system: COc1ccc(C[C@@H]2NCCc3cc(OC)c(OC)cc32)cc1OC; experiment: purified protein; conditions: co-substrate S-adenosylmethionine

Compound | Km (IR45 [1]) [µM] | Km (IR45 [2]) [µM] | Km (IR45 [3]) [µM] | Km [4] [µM] | kcat [4] [s⁻¹] | Km [5] [µM] | kcat [5] [s⁻¹]
COc1cc2c(cc1OC)C(c1ccc3c(c1)OCO3)=NCC2 [1a] | 154 | 123 | 108 |  |  |  | 
COc1ccc(CC2=NCCc3cc(OC)c(OC)cc32)cc1OC [5a] | 518 | 353 | 178 |  |  |  | 
Coclaurine N-methyltransferase (CNMT) (Coptis japonica) |  |  |  | 806 ± 198 | 0.098 ± 0.031 | 807 ± 208 | 0.296 ± 0.042
COc1cc2c(cc1OC)C(Cc1ccccc1)=NCC2 [4a] | 148 | 252 | 251 |  |  |  | 
COc1cc2c(cc1OC)C(c1cc(OC)c(OC)c(OC)c1)=NCC2 [3a] |  | 372 |  |  |  |  | 
COc1ccc(C2=NCCc3cc(OC)c(OC)cc32)cc1OC [2a] |  | 307 |  |  |  |  | 
